31 compounds from US20150087673A1, “METHODS FOR USING AND BIOMARKERS FOR AMPK-ACTIVATING COMPOUNDS” (RIGEL PHARMACEUTICALS, INC., priority 2013, published 2015) can be followed below.

In the test the test system is AMPK. The test can be described thus: AMPK activation assay (enzyme-linked immunosorbent assay). The class given is cell-based. A digest of the protocol: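 Compounds were tested for their capacity to activate the kinase using standard, commercially available kit reagents and procedures.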

By EC50 is commonly meant the midpoint of the concentration-response curve. For the compound `N#Cc1ccc(CN2CCC(NC(=O)c3ccc(C(=O)N4CCC(C(=O)c5ccc(Cl)cc5)CC4)cn3)CC2)cc1` [Compound 154, 5-(4-(4-chlorobenzoyl)piperidine-1-carbonyl)-N-(1-(4-cyanobenzyl)piperidin-4-yl)picolinamide], the half-maximal effective concentration (EC50) was < 500 nM. Under `COc1ccc(OC2CCN(C(=O)c3ccc(C(=O)N[C@H]4CC[C@@H](Oc5ccc(C#N)cc5)CC4)nc3)CC2)cc1` [Compound 174, N-((cis)-4-(4-cyanophenoxy)cyclohexyl)-5-(4-(4-methoxyphenoxy)piperidine-1-carbonyl)picolinamide] stands < 500 nM. For `O=C(Nc1ccc(Oc2ccc(F)cc2)nc1)c1ccc(C(=O)N2CCC(Oc3ccc(F)cc3F)CC2)nc1` [Compound 343, 6-(4-(2,4-difluorophenoxy)piperidine-1-carbonyl)-N-(6-(4-fluorophenoxy)pyridin-3-yl)nicotinamide] the value was < 500 nM. Under `O=C(NC1CCN(Cc2ccc(OC(F)(F)F)cc2)CC1)c1ccc(C(=O)N2CCC(Oc3ccc(C(=O)C4CC4)cc3)CC2)nc1` [Compound 455, 6-(4-(4-(cyclopropanecarbonyl)phenoxy)piperidine-1-carbonyl)-N-(1-(4-(trifluoromethoxy)benzyl)piperidin-4-yl)nicotinamide] stands < 500 nM; under `COc1ccc(CN2CCC(NC(=O)c3ccc(C(=O)N4CCC(C(=O)c5ccc(S(C)(=O)=O)cc5)CC4)nc3)CC2)cc1` [Compound 223, N-(1-(4-methoxybenzyl)piperidin-4-yl)-6-(4-(4-(methylsulfonyl)benzoyl)piperidine-1-carbonyl)nicotinamide], 1000 to 5000 nM; under `N#Cc1ccc(CN2CCc3ccc(NC(=O)c4ccc(C(=O)NCc5ccc(F)cc5)cn4)cc3C2)cc1` [Compound 144, N2-(2-(4-cyanobenzyl)-1,2,3,4-tetrahydroisoquinolin-7-yl)-N5-(4-fluorobenzyl)pyridine-2,5-dicarboxamide], 500 to 1000 nM. In the case of `CC(=O)c1ccc(OC2CCN(C(=O)c3ccc(C(=O)Nc4ccc(Oc5ccc(F)cc5)nc4)cn3)CC2)cc1` [Compound 395, 6-(4-(4-acetylphenoxy)piperidine-1-carbonyl)-N-(6-(4-fluorophenoxy)pyridin-3-yl)nicotinamide], the EC50 is < 500 nM.

`COc1ccc(C(=O)C2CCN(C(=O)c3ccc(C(=O)NC4CCN(Cc5ccc(C#N)cc5)CC4)nc3)CC2)cc1` [Compound 129, N-(1-(4-cyanobenzyl)piperidin-4-yl)-5-(4-(4-methoxybenzoyl)piperidine-1-carbonyl)picolinamide]: the EC50 was < 500 nM. Under `COc1ccc(OC2CCN(C(=O)c3ccc(C(=O)N[C@H]4CC[C@@H](Oc5ccc(OC)cc5)CC4)nc3)CC2)cc1` [Compound 186, N-((cis)-4-(4-methoxyphenoxy)cyclohexyl)-5-(4-(4-methoxyphenoxy)piperidine-1-carbonyl)picolinamide] stands < 500 nM. On to `CN1CCN(c2ccc(C(=O)C3CCN(C(=O)c4ccc(C(=O)NC5CCN(Cc6ccc(C#N)cc6)CC5)nc4)CC3)cc2)CC1` [Compound 380, N-(1-(4-cyanobenzyl)piperidin-4-yl)-5-(4-(4-(4-methylpiperazin-1-yl)benzoyl)piperidine-1-carbonyl)picolinamide], for which the EC50 is < 500 nM. Under `N#Cc1ccc(OC2CCN(c3ccc(C(=O)N4CCN(Cc5ccc(F)cc5)CC4)cn3)CC2)cc1` [Compound 188, 4-(1-(5-(4-(4-fluorobenzyl)piperazine-1-carbonyl)pyridin-2-yl)piperidin-4-yloxy)benzonitrile] stands 500 to 1000 nM; under `O=C(Nc1ccc(-c2cccnc2)cc1)c1ccc(C(=O)N2CCN(Cc3ccc(F)cc3)CC2)cn1` [Compound 61, 5-(4-(4-fluorobenzyl)piperazine-1-carbonyl)-N-(4-(pyridine-3-yl)phenyl)picolinamide], < 500 nM. For `COc1ccc(C(=O)N2CCN(C(=O)c3ccc(C(=O)NC4CCN(Cc5ccc(C#N)cc5)CC4)nc3)CC2)cc1` [Compound 77, N-(1-(4-cyanobenzyl)piperidin-4-yl)-5-(4-(4-methoxybenzoyl)piperazine-1-carbonyl)picolinamide], the EC50 was < 500 nM.

The compound `COc1ccc(S(=O)(=O)N2CCN(C(=O)c3ccc(C(=O)NC4CCN(Cc5ccc(C#N)cc5)CC4)nc3)CC2)cc1` [Compound 79, N-(1-(4-cyanobenzyl)piperidin-4-yl)-5-(4-(4-methoxyphenylsulfonyl)piperazine-1-carbonyl)picolinamide] came in with an EC50 of 500 to 1000 nM. Turning to `N#Cc1ccc(OC2CCN(C(=O)c3ccc(C(=O)Nc4ccc(Oc5ccc(F)cc5)nc4)cn3)CC2)cc1` [Compound 326, 6-(4-(4-cyanophenoxy)piperidine-1-carbonyl)-N-(6-(4-fluorophenoxy)pyridin-3-yl)nicotinamide], the EC50 is < 500 nM. On to `CS(=O)(=O)c1ccc(OC2CCN(C(=O)c3ccc(C(=O)NC4CCN(Cc5ccc(F)cc5)CC4)nc3)CC2)cc1` [Compound 226, N-(1-(4-fluorobenzyl)piperidin-4-yl)-5-(4-(4-(methylsulfonyl)phenoxy)piperidine-1-carbonyl)picolinamide], for which the EC50 is < 500 nM.

Regarding `COc1ccc(CN2CCC(NC(=O)c3ccc(C(=O)N4CCC(Oc5ccc(C(=O)C6CC6)cc5)CC4)nc3)CC2)cc1` [Compound 458, 6-(4-(4-(cyclopropanecarbonyl)phenoxy)piperidine-1-carbonyl)-N-(1-(4-methoxybenzyl)piperidin-4-yl)nicotinamide], the EC50 was < 500 nM. For the compound `N#Cc1ccc(OC2CCN(C(=O)c3ccc(C(=O)NC4CCN(Cc5ccc(F)cc5)CC4)cn3)CC2)cc1` [Compound 320, 6-(4-(4-cyanophenoxy)piperidine-1-carbonyl)-N-(1-(4-fluorobenzyl)piperidin-4-yl)nicotinamide], the EC50 was < 500 nM. `CC(=O)c1ccc(Oc2ccc(NC(=O)c3ccc(C(=O)N4CCC(S(=O)(=O)c5ccc(F)cc5)CC4)nc3)cn2)cc1` [Compound 473, N-(6-(4-acetylphenoxy)pyridin-3-yl)-6-(4-(4-fluorophenylsulfonyl)piperidine-1-carbonyl)nicotinamide] returned an EC50 of 1000 to 5000 nM. For `COc1ccc(OC2CCN(C(=O)c3ccc(C(=O)N[C@H]4CC[C@@H](Oc5ccc(C(F)(F)F)cc5)CC4)nc3)CC2)cc1` [Compound 191, 5-(4-(4-methoxyphenoxy)piperidine-1-carbonyl)-N-((cis)-4-(4-(trifluoromethyl)phenoxy)cyclohexyl) picolinamide] the value was < 500 nM. For `COc1ccc(CN2CCC(NC(=O)c3ccc(C(=O)N4CCC(Oc5ccc(NC(C)=O)cc5)CC4)nc3)CC2)cc1` [Compound 407, 6-(4-(4-acetamidophenoxy)piperidine-1-carbonyl)-N-(1-(4-methoxybenzyl)piperidin-4-yl) nicotinamide] the value was < 500 nM.

Consider `N#Cc1ccc(Oc2ccc(NC(=O)c3ccc(C(=O)N4CCC(Oc5ccc(S(F)(F)(F)(F)F)cc5)CC4)nc3)cn2)cc1` [Compound 497, N-(6-(4-cyanophenoxy)pyridin-3-yl)-6-(4-(4-(pentafluorosulfanyl)phenoxy)piperidine-1-carbonyl)nicotinamide], for which the EC50 is < 500 nM. For `CN1CCN(c2ccc(C(=O)C3CCN(C(=O)c4ccc(C(=O)Nc5ccc(Oc6ccc(F)cc6)nc5)cn4)CC3)cc2)CC1` [Compound 245, N-(6-(4-fluorophenoxy)pyridin-3-yl)-6-(4-(4-(4-methylpiperazin-1-yl)benzoyl)piperidine-1-carbonyl)nicotinamide] the value was < 500 nM; for `N#Cc1ccc(CN2CCC(NC(=O)c3ccc(NC4CCN(c5ccc(Cl)cc5)CC4)cn3)CC2)cc1` [Compound 139, 5-(1-(4-chlorophenyl)piperidin-4-ylamino)-N-(1-(4-cyanobenzyl)piperidin-4-yl)picolinamide], < 500 nM. For `N#Cc1ccc(O[C@H]2CC[C@H](NC(=O)c3ccc(C(=O)N4CCC(Oc5ccc(F)cc5)CC4)cn3)CC2)cc1` [Compound 169, N-((trans)-4-(4-cyanophenoxy)cyclohexyl)-5-(4-(4-fluorophenoxy)piperidine-1-carbonyl)picolinamide] the value was 500 to 1000 nM.

`COc1ccc(C(=O)C2CCN(C(=O)c3ncc(C(=O)NC4CCN(Cc5ccc(C#N)cc5)CC4)cc3CCCNC(=O)OC(C)(C)C)CC2)cc1` [Compound 416, tert-butyl 3-(5-(1-(4-cyanobenzyl)piperidin-4-ylcarbamoyl)-2-(4-(4-methoxybenzoyl)piperidine-1-carbonyl)pyridin-3-yl)propylcarbamate] came in with a concentration for a half-maximal effect (EC50) of 1000 to 5000 nM. Under `N#Cc1ccc(CN2CCC(NC(=O)c3cnc(C(=O)N4CCC(Oc5ccc(C(F)(F)F)cc5)CC4)cn3)CC2)cc1` [Compound 212, N-(1-(4-cyanobenzyl)piperidin-4-yl)-5-(4-(4-(trifluoromethyl)phenoxy)piperidine-1-carbonyl)pyrazine-2-carboxamide] stands < 500 nM; under `COc1ccc(C(=O)C2CCN(C(=O)c3ccc(C(=O)NC4CCN(Cc5ccc(C(=O)N(C)C)cc5)CC4)cn3)CC2)cc1` [Compound 490, N-(1-(4-(dimethylcarbamoyl)benzyl)piperidin-4-yl)-6-(4-(4-methoxybenzoyl)piperidine-1-carbonyl)nicotinamide], 1000 to 5000 nM; under `CS(=O)(=O)c1ccc(C(=O)C2CCN(C(=O)c3ccc(C(=O)Nc4ccc(Oc5ccc(F)cc5)nc4)nc3)CC2)cc1` [Compound 232, N-(6-(4-fluorophenoxy)pyridin-3-yl)-5-(4-(4-(methylsulfonyl)benzoyl)piperidine-1-carbonyl)picolinamide], < 500 nM. Under `O=C(NC1CCN(Cc2cc(F)cc(F)c2)CC1)c1ccc(C(=O)N2CCN(Cc3ccc(F)cc3)CC2)cn1` [Compound 49, N-(1-(3,5-difluorobenzyl)piperidin-4-yl)-5-(4-(4-fluorobenzyl)piperazine-1-carbonyl)picolinamide] stands < 500 nM; under `O=C(Nc1ccc(Cc2ccccc2)cc1)c1ccc(C(=O)N2CCN(Cc3ccc(F)cc3)CC2)cn1` [Compound 10, N-(4-benzylphenyl)-5-(4-(4-fluorobenzyl)piperazine-1-carbonyl)picolinamide], < 500 nM.
